Assay results taken from patent publication US9974776B2, “Estrogen receptor beta agonists for use in treating mesothelioma” (Karo Pharma AB, priority 2013, dated 2018).
Read-outs that look alike come from different tables or passages of the source.

Legend:
[1] = tested on: REN cells; assay: Proliferation assay (Trypan blue viable cell count; wash-off and add-on experiments) in REN cells; format: cell-based, human; conditions: concentrations used in Example 2(a), said in b159 to be the respective IC50 concentrations, read-out: IC50 concentration in REN cells
Protocol: (§1) Cells were seeded at a density of 10×10^4 cells/well in 6-well plates in RPMI medium supplemented with 10% FBS, 100 μg/ml streptomycin and 10 μg/ml penicillin and incubated over-night at 37° C. in a humidified environment containing 5% CO2 to allow adherence. Following treatment cells were trypsinized and stained with Trypan blue. The number of cells considered viable (unstained cells) was counted in a Bürker haemocytometer within 5 minutes after staining.
Control cultures were maintained in normal growth medium without added drug. The number of viable cells was determined as described for the proliferation assay.
In the add-on experiments the second drug was added directly to the cell culture medium without wash-off of the first drug. […] Control cultures were maintained in normal growth medium without added drug. The number of viable cells was determined as described for the proliferation assay.

[2] = tested on: MET5A cells; assay: Proliferation assay in non-malignant mesothelial MET5A cells; format: cell-based; conditions: 24 hours treatment
Protocol: as §1
Cell cultures were pretreated with Compound (I) for 1-16 hours (depending on experiment) followed by wash-off and then replenished with normal growth medium±cisplatin, pemetrexed or cisplatin/pemetrexed. Total incubation time was 24-72 hours (depending on experiment). Control cultures were maintained in normal growth medium without added drug. The number of viable cells was determined as described for the proliferation assay.

[3] = tested on: PARP1 cleavage; assay: Western blot of PARP1 cleavage in REN cells; format: cell-based, human; conditions: agent alone
Protocol: Cells were extracted with 1% NP-40 lysis buffer (1% NP-40, 150 mM NaCl, 50 mM Tris-HCl pH 8.5 mM EDTA, 10 mM NaF, 10 mM Na4P2O7, 0.4 mM Na3VO4) with freshly added protease inhibitors (10 μg/ml leupeptin, 4 μg/ml pepstatin and 0.1 Unit/ml aprotinin). For protein extraction from tissues, ˜100 mg of each sample were homogenized, using a Potter-Elvehjem homogenizer device, in 1% NP-40 lysis buffer. Lysates were centrifuged at 13.000×g for 10 minutes at 4° C. and the supernatants were collected and assayed for protein concentration with the Bio-Rad protein assay method.
Proteins were separated by SDS-PAGE under reducing conditions. Following SDS-PAGE, proteins were transferred to nitrocellulose, reacted with specific antibodies and then detected with peroxidase-conjugate secondary antibodies and chemioluminescent ECL reagent. Densitometric analysis was performed using the GS 250 Molecular Image (Bio-Rad).
Levels of PARP1, cleaved PARP1, AKT and phosphorylated AKT in REN cells treated for 24 hours with cisplatin (25, 50 and 100 μM) or pre-treated 2 hours with Compound (I) (10 nM) followed by wash-off and continued growth in normal medium±cisplatin (25, 50 and 100 μM), for an additional 24 hours were also determined by Western blot analysis and relative densitometry. Total AKT and Tubulin staining were used for normalization. PARP1 cleavage was analysed as it is an indicator of apoptotic cell death. As increased AKT activity has been implicated in the control of proliferation, apoptosis and cisplatin resistance (Pinton G., et al, PLoS One (2012) 7:e36856), AKT activation status following different treatments was also analysed.

Row | SMILES | IC50 [1] [µM] | IC50 [2] [µM] | PARP1 cleavage, single agent [3] | IC50 ([1]; Homo sapiens) [µM]
1 | N.N.[Cl][Pt][Cl] [cisplatin, reference compound] | 100 | 25 | neither cisplatin nor Compound (I) alone resulted in significant PARP1 cleavage | 
2 | Nc1nc2[nH]cc(CCc3ccc(C(=O)N[C@@H](CCC(=O)O)C(=O)O)cc3)c2c(=O)[nH]1 [pemetrexed, reference compound] |  |  |  | 22
